# Assay results taken from PubChem BioAssay (NCI).
#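 A five-concentration, 48-hour dose response in 96-well plates underlies each endpoint, interpolated linearly between surrounding concentrations. TGI: total growth inhibition.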
# Tests used:
# Experiment in all cases: NCI tumour cell line growth inhibition, 48 h
# HCC-2998 colon = tested on: HCC-2998 colon
# M19-MEL melanoma = tested on: M19-MEL melanoma
# NCI-H460 lung = tested on: NCI-H460 lung
# K-562 leukemia = tested on: K-562 leukemia
# LXFL 529 NSCLC = tested on: LXFL 529 NSCLC
# SK-MEL-2 melanoma = tested on: SK-MEL-2 melanoma
# TK-10 renal = tested on: TK-10 renal
# OVCAR-8 ovarian = tested on: OVCAR-8 ovarian
# UO-31 renal = tested on: UO-31 renal
# OVCAR-5 ovarian = tested on: OVCAR-5 ovarian
# COLO 205 colon = tested on: COLO 205 colon
# U251 CNS = tested on: U251 CNS
# SW-620 colon = tested on: SW-620 colon
# HL-60(TB) leukemia = tested on: HL-60(TB) leukemia
# UACC-257 melanoma = tested on: UACC-257 melanoma
# HCT-15 colon = tested on: HCT-15 colon
# SF-539 CNS = tested on: SF-539 CNS
# NCI-H522 lung = tested on: NCI-H522 lung
# HT29 colon = tested on: HT29 colon
# UACC-62 melanoma = tested on: UACC-62 melanoma
# HCT-116 colon = tested on: HCT-116 colon
# DMS 273 small cell lung = tested on: DMS 273 small cell lung
# SR leukemia = tested on: SR leukemia
# CAKI-1 renal = tested on: CAKI-1 renal
# MALME-3M melanoma = tested on: MALME-3M melanoma
# OVCAR-3 ovarian = tested on: OVCAR-3 ovarian
# SNB-19 CNS = tested on: SNB-19 CNS
# SF-268 CNS = tested on: SF-268 CNS
# ACHN renal = tested on: ACHN renal
# HOP-18 NSCLC = tested on: HOP-18 NSCLC
# SK-OV-3 ovarian = tested on: SK-OV-3 ovarian
# A549 NSCLC = tested on: A549 NSCLC
# HOP-92 NSCLC = tested on: HOP-92 NSCLC
# SNB-75 CNS = tested on: SNB-75 CNS
# SF-295 CNS = tested on: SF-295 CNS
# KM20L2 colon = tested on: KM20L2 colon
# M14 melanoma = tested on: M14 melanoma
# SK-MEL-28 melanoma = tested on: SK-MEL-28 melanoma
# CCRF-CEM leukemia = tested on: CCRF-CEM leukemia
# LOX IMVI melanoma = tested on: LOX IMVI melanoma
# SN12C renal = tested on: SN12C renal
# SK-MEL-5 melanoma = tested on: SK-MEL-5 melanoma
# HOP-62 NSCLC = tested on: HOP-62 NSCLC
# NCI-H23 lung = tested on: NCI-H23 lung
# 786-0 renal = tested on: 786-0 renal
# DMS 114 small cell lung = tested on: DMS 114 small cell lung
# DLD-1 colon = tested on: DLD-1 colon
# IGROV1 ovarian = tested on: IGROV1 ovarian
# SNB-78 CNS = tested on: SNB-78 CNS
# A498 renal = tested on: A498 renal
# RPMI-8226 leukemia = tested on: RPMI-8226 leukemia
# KM12 colon = tested on: KM12 colon
# NCI-H226 lung = tested on: NCI-H226 lung
# RXF 393 renal = tested on: RXF 393 renal
# MOLT-4 leukemia = tested on: MOLT-4 leukemia
# OVCAR-4 ovarian = tested on: OVCAR-4 ovarian
smiles,measurement,setting,value
Nc1nc(N)c2ncn(CCCC(c3ccccc3)P(=O)(O)O)c2n1 (stereo not given),TGI,HCC-2998 colon,> 100 µM
same,TGI,M19-MEL melanoma,> 100 µM
same,TGI,NCI-H460 lung,> 100 µM
same,TGI,K-562 leukemia,> 100 µM
same,TGI,LXFL 529 NSCLC,> 100 µM
same,TGI,SK-MEL-2 melanoma,> 100 µM
same,TGI,TK-10 renal,> 100 µM
same,TGI,OVCAR-8 ovarian,> 100 µM
same,TGI,UO-31 renal,> 100 µM
same,TGI,OVCAR-5 ovarian,> 100 µM
same,TGI,COLO 205 colon,> 100 µM
same,TGI,U251 CNS,> 100 µM
same,TGI,SW-620 colon,> 100 µM
same,TGI,HL-60(TB) leukemia,> 100 µM
same,TGI,UACC-257 melanoma,> 100 µM
same,TGI,HCT-15 colon,> 100 µM
same,TGI,SF-539 CNS,> 100 µM
same,TGI,NCI-H522 lung,> 100 µM
same,TGI,HT29 colon,> 100 µM
same,TGI,UACC-62 melanoma,> 100 µM
same,TGI,HCT-116 colon,> 100 µM
same,TGI,DMS 273 small cell lung,> 100 µM
same,TGI,SR leukemia,> 100 µM
same,TGI,CAKI-1 renal,> 100 µM
same,TGI,MALME-3M melanoma,> 100 µM
same,TGI,OVCAR-3 ovarian,> 100 µM
same,TGI,SNB-19 CNS,> 100 µM
same,TGI,SF-268 CNS,> 100 µM
same,TGI,ACHN renal,> 100 µM
same,TGI,HOP-18 NSCLC,> 100 µM
same,TGI,SK-OV-3 ovarian,> 100 µM
same,TGI,A549 NSCLC,> 100 µM
same,TGI,HOP-92 NSCLC,> 100 µM
same,TGI,SNB-75 CNS,> 100 µM
same,TGI,SF-295 CNS,> 100 µM
same,TGI,KM20L2 colon,> 100 µM
same,TGI,M14 melanoma,> 100 µM
same,TGI,SK-MEL-28 melanoma,> 100 µM
same,TGI,CCRF-CEM leukemia,> 100 µM
same,TGI,LOX IMVI melanoma,> 100 µM
same,TGI,SN12C renal,> 100 µM
same,TGI,SK-MEL-5 melanoma,> 100 µM
same,TGI,HOP-62 NSCLC,> 100 µM
same,TGI,NCI-H23 lung,36 µM
same,TGI,786-0 renal,> 100 µM
same,TGI,DMS 114 small cell lung,> 100 µM
same,TGI,DLD-1 colon,> 100 µM
same,TGI,IGROV1 ovarian,> 100 µM
same,TGI,SNB-78 CNS,> 100 µM
same,TGI,A498 renal,> 100 µM
same,TGI,RPMI-8226 leukemia,> 100 µM
same,TGI,KM12 colon,> 100 µM
CC(=O)Nc1ccc(-c2nnc(SCC(=O)Nc3ccccc3)o2)cc1,TGI,M19-MEL melanoma,> 100 µM
same,TGI,NCI-H460 lung,> 100 µM
same,TGI,NCI-H226 lung,> 100 µM
same,TGI,K-562 leukemia,> 100 µM
same,TGI,LXFL 529 NSCLC,> 100 µM
same,TGI,SK-MEL-2 melanoma,> 100 µM
same,TGI,TK-10 renal,> 100 µM
same,TGI,OVCAR-8 ovarian,> 100 µM
same,TGI,UO-31 renal,> 100 µM
same,TGI,OVCAR-5 ovarian,> 100 µM
same,TGI,COLO 205 colon,> 100 µM
same,TGI,U251 CNS,> 100 µM
same,TGI,SW-620 colon,> 100 µM
same,TGI,HL-60(TB) leukemia,> 100 µM
same,TGI,UACC-257 melanoma,> 100 µM
same,TGI,HCT-15 colon,> 100 µM
same,TGI,SF-539 CNS,> 100 µM
same,TGI,NCI-H522 lung,> 100 µM
same,TGI,HT29 colon,> 100 µM
same,TGI,UACC-62 melanoma,> 100 µM
same,TGI,HCT-116 colon,> 100 µM
same,TGI,DMS 273 small cell lung,> 100 µM
same,TGI,SR leukemia,> 100 µM
same,TGI,CAKI-1 renal,> 100 µM
same,TGI,MALME-3M melanoma,> 100 µM
same,TGI,OVCAR-3 ovarian,> 100 µM
same,TGI,SF-268 CNS,> 100 µM
same,TGI,ACHN renal,> 100 µM
same,TGI,HOP-18 NSCLC,> 100 µM
same,TGI,SK-OV-3 ovarian,> 100 µM
same,TGI,A549 NSCLC,> 100 µM
same,TGI,HOP-92 NSCLC,> 100 µM
same,TGI,SNB-75 CNS,> 100 µM
same,TGI,SF-295 CNS,> 100 µM
same,TGI,KM20L2 colon,> 100 µM
same,TGI,M14 melanoma,> 100 µM
same,TGI,SK-MEL-28 melanoma,> 100 µM
same,TGI,CCRF-CEM leukemia,> 100 µM
same,TGI,RXF 393 renal,> 100 µM
same,TGI,LOX IMVI melanoma,> 100 µM
same,TGI,SN12C renal,> 100 µM
same,TGI,SK-MEL-5 melanoma,> 100 µM
same,TGI,HOP-62 NSCLC,> 100 µM
same,TGI,NCI-H23 lung,> 100 µM
same,TGI,786-0 renal,> 100 µM
same,TGI,DMS 114 small cell lung,> 100 µM
same,TGI,MOLT-4 leukemia,> 100 µM
same,TGI,DLD-1 colon,> 100 µM
same,TGI,IGROV1 ovarian,> 100 µM
same,TGI,SNB-78 CNS,> 100 µM
same,TGI,OVCAR-4 ovarian,> 100 µM
same,TGI,RPMI-8226 leukemia,> 100 µM
same,TGI,KM12 colon,> 100 µM
